# Results: publication PMC10592443 (Cell chemical biology, 2023)
# Residues, ends and D or L forms follow the SMILES beside them. *: point of attachment. Cbz = O=C(OCc1ccccc1)*; CH2F = FC*
# Experiments:
# 786-O cells [1] = experiment: Cell viability / proliferation; type: cell-based, Human; details: varying doses, 48hrs
# recombinant PP5-His6 = target: T1, recombinant PP5-His6 (Homo sapiens, UniProt P53041); experiment: PP5 phosphatase activity and inhibition assay; type: biochemical; details: phospho-S211-GR peptide substrate
# T1 sequence (P53041 1-499): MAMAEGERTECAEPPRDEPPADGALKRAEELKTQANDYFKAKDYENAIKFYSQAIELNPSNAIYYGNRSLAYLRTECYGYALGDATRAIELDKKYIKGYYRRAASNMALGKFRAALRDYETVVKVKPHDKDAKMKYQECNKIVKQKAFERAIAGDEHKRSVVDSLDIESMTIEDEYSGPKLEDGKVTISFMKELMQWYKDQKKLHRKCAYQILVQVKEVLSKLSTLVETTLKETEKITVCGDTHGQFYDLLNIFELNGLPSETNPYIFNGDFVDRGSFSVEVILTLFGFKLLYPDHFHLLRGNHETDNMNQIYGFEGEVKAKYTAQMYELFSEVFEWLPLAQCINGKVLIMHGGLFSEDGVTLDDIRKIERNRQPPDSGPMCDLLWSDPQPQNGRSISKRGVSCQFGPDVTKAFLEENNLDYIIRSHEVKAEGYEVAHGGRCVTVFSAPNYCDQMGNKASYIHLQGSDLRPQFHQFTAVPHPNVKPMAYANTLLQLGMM
# 786-O cells [2] = experiment: Induction of apoptosis by immunoblotting of apoptotic markers; type: cell-based, Human
# A498 cells = experiment: Phosphorylation of S194-FADD by western blot; type: cell-based, Human; details: indicated amounts, 24hrs
# [3] = system: VHL-null ccRCC cell lines; details: ref [2]; cited from earlier work
# 786-O cells [4] = experiment: Phosphorylation of S194-FADD by western blot; type: cell-based, Human; details: indicated amounts, 24hrs
# HEK293 cells = experiment: Hsp90 inhibition time course, protein levels by immunoblot; type: cell-based, Human; details: 2μM
# PP5 = details: ref [52]-[54]; cited from earlier work
# PP1 = details: ref [52]-[54]; cited from earlier work
# PP2A = experiment: Biotinylated compound pulldown from 786-O lysate, co-pulldown of PP2A; type: binding, Human; details: 1μM
# [5] = system: PP5-FLAG active site point mutants; experiment: Biotin-P13 streptavidin pulldown of PP5 active site point mutants; type: binding, Human
# [6] = target: T2, PP5-FLAG active site point mutants (Homo sapiens, UniProt P53041, R400A); experiment: as above; type: binding; details: R400A mutant
# T2 sequence (P53041 2-499 R400A): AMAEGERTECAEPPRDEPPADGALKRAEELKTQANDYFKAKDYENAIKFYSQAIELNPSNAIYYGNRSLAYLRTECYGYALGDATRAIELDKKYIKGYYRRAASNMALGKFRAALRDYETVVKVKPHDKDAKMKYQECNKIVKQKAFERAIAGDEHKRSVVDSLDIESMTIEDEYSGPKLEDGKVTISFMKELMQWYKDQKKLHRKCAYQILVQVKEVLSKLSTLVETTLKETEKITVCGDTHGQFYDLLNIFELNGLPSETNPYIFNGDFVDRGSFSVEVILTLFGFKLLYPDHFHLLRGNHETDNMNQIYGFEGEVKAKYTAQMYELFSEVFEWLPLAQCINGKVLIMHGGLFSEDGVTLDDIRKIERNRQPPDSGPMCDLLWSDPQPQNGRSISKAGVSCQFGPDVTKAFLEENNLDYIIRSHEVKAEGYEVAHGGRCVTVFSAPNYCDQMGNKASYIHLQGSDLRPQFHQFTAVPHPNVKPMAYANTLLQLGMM
# PP5-FLAG = target: T3, PP5-FLAG (Homo sapiens, UniProt P53041); experiment: Biotin-P5 and biotin-P13 streptavidin pulldown from HEK293 lysate; type: binding; details: for binding to PP5-FLAG (co-pulldown): HEK293 lysate, 0.01-10μM biotinylated compound
# T3 sequence (P53041 1-499): T1 sequence (P53041 1-499)
# VHL-null ccRCC cells = experiment: Propidium iodide staining, cell death by flow cytometry; type: cell-based, Human; details: 30 or 40μM, A498 and 786-O versus Caki-1 and Caki-2; dose dependent
smiles,measurement,setting,value
"COC(=O)c1cccc(NS(=O)(=O)c2c(C)noc2C)c1 [Compound P5, Methyl m-(3,5-dimethyl-4-isoxazolylsulfonylamino)benzoate]",proliferation of 786-O cells (MTT),786-O cells [1],significantly inhibited the proliferation
same,"mode of PP5 inhibition (enzyme kinetics, Lineweaver-Burk plot)",recombinant PP5-His6,competitive inhibitors
same,cleavage of apoptotic markers (immunoblot),"786-O cells [2]; 10μM, 24hrs",cleavage of the apoptotic markers caspase 3 and 8 and PARP
COc1cc(OC)c(C=C2C(O)=Nc3ccccc32)c(OC)c1 [IC261],S194-FADD phosphorylation,A498 cells,increase in S194-FADD phosphorylation
same,induction of extrinsic apoptosis (apoptotic markers),"786-O cells [2]; indicated amounts, 16hrs",induced extrinsic apoptosis in a dose-dependent manner
same,PP5 activity,[3],decreased PP5 activity
same,apoptosis,[3],induced apoptosis
same,S194-FADD phosphorylation,786-O cells [4],increase in S194-FADD phosphorylation
CC1(C)CC(=O)c2c(C(F)(F)F)nn(-c3ccc(C(N)=O)c(N[C@H]4CC[C@H](O)CC4)c3)c2C1 [SNX-2112],RIPK1 protein levels,HEK293 cells; 16 hr,decreased RIPK1 protein levels
same,FADD protein levels,HEK293 cells; throughout the time course,did not observe a decrease in FADD levels
same,"Hsp90 clients Tsc2, Akt and phos-Ser473-Akt protein levels",HEK293 cells; time course,destabilized and degraded
"CCCCN(c1ccc(Oc2ccccc2)cc1)S(=O)(=O)c1c(C)noc1C [Compound P058, N-Butyl(3,5-dimethyl-4-isoxazolylsulfonyl)(p-phenoxyphenyl)amine]","induction of apoptosis (cleaved PARP, cleaved caspase 8)","786-O cells [2]; 10μM, 24hrs",ability to induce apoptosis
CN1CCN(C(=O)C2C(C(=O)O)[C@H]3CC[C@@H]2O3)CC1 (some centres unmarked) [LB-100],inhibition of PP5,PP5,inhibit PP5 and PP1
same,inhibition of PP1,PP1,inhibit PP5 and PP1
"COC(=O)C[C@H](NC(=O)[C@H](C)NC(=O)[C@@H](NC(=O)OCc1ccccc1)C(C)C)C(=O)CF [z-VAD-fmk, reference compound] (Cbz-Val-Ala-Asp(OMe)-CH2F)",effect on IC261-induced extrinsic apoptosis,"786-O cells [2]; 10μM for 1hr, then IC261 for 16hrs",reversed this effect
"Cc1ccc(NS(=O)(=O)c2c(C)noc2C)cc1C [Compound P13, (3,5-Dimethyl-4-isoxazolylsulfonyl)(3,4-xylyl)amine]",proliferation of 786-O cells (MTT),786-O cells [1],significantly inhibited the proliferation
same,"mode of PP5 inhibition (enzyme kinetics, Lineweaver-Burk plot)",recombinant PP5-His6,competitive inhibitors
same,cleavage of apoptotic markers (immunoblot),"786-O cells [2]; 10μM, 24hrs",cleavage of the apoptotic markers caspase 3 and 8 and PARP
"Cc1ccc(N(CCCNC(=O)CCC[C@@H]2SC[C@@H]3NC(=O)N[C@@H]32)S(=O)(=O)c2c(C)noc2C)cc1C [biotin-P13, 4-[(3aS,4S,6aR)-2-Oxo-hexahydro-1H-thieno[3,4-d]imidazol-4-yl]-N-(3-[N-(3,4-dimethylphenyl)3,5-dimethyl-1,2-oxazole-4-sulfonamido]propyl}butanamide]",binding to PP2A (co-pulldown),PP2A,did not bind to PP2A
same,binding of PP5 mutants to biotinylated compound,"[5]; H304Q, M309C and W386F mutants",unable to bind
same,binding of PP5 mutants to biotinylated compound compared to WT PP5,[5]; R275A and Y451F mutants,increased binding
same,binding of PP5 mutant to biotinylated compound compared to WT PP5,[6],reduced binding
same,binding to PP5-FLAG relative to biotin-P5,PP5-FLAG; 10μM,bound more
same,binding to PP5-FLAG (co-pulldown),PP5-FLAG,binds
"Cc1noc(C)c1S(=O)(=O)Nc1cccc(C(=O)N2CCN(C(=O)CCC[C@@H]3SC[C@@H]4NC(=O)N[C@@H]43)CC2)c1 [biotin-P5, N-[3-(4-(4-[(3aS,4S,6aR)-2-Oxo-hexahydro-1H-thieno[3,4-d]imidazol-4-yl]butanoyl)piperazine-1-carbonyl)phenyl]-3,5-dimethyl-1,2-oxazole-4-sulfonamide]",binding to PP2A (co-pulldown),PP2A,did not bind to PP2A
same,binding to PP5-FLAG (co-pulldown),PP5-FLAG,binds
"Cc1noc(C)c1S(=O)(=O)Nc1ccc(Cc2ccccc2)cc1 [Compound P053, (3,5-Dimethyl-4-isoxazolylsulfonyl)(p-benzylphenyl)amine]",cell death (PI stained cells),VHL-null ccRCC cells,selectively caused cell death
same,cleavage of caspase 3 and PARP,"786-O cells [2]; 10μM, 24hrs",increased cleavage of the executioner caspase 3
same,cleavage of caspase 8 and caspase 9 (extrinsic versus intrinsic apoptosis),"786-O cells [2]; 10μM, 24hrs",cleavage of caspase 8 but not caspase 9
same,"induction of apoptosis (cleaved PARP, cleaved caspase 8)","786-O cells [2]; 10μM, 24hrs",ability to induce apoptosis
"Cc1noc(C)c1S(=O)(=O)N(CCCC#N)c1ccc(Oc2ccccc2)cc1 [Compound P075, 4-[(3,5-Dimethyl-4-isoxazolylsulfonyl)(p-phenoxyphenyl)amino]butyronitrile]","induction of apoptosis (cleaved PARP, cleaved caspase 8)","786-O cells [2]; 10μM, 24hrs",ability to induce apoptosis
"Cc1noc(C)c1S(=O)(=O)N(CCCCl)c1ccc(Oc2ccccc2)cc1 [Compound P059, (3-Chloropropyl)(3,5-dimethyl-4-isoxazolylsulfonyl)(p-phenoxyphenyl)amine]","induction of apoptosis (cleaved PARP, cleaved caspase 8)","786-O cells [2]; 10μM, 24hrs",ability to induce apoptosis
